Columns and labels:
Assay in all cases: relative viability (nuclei count vs DMSO), 5 days (fraction); higher = more cells survive
[1] = compound: COc1cc(-c2nn([C@H]3CC[C@H](N4CCN(C(C)=O)CC4)CC3)c3ncnc(N)c23)ccc1NC(=O)c1cc2ccccc2n1C + C[C@]1(O)C[C@@H](c2nc(-c3ccc4ccc(-c5ccccc5)nc4c3)c3c(N)nccn32)C1 [Linsitinib] (partner 1 µM)
Outline: (§1)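 Cells from lung cancer lines were seeded into 1536-well plates and, one day later, dosed by pin tool. Treatments were either a single drug or a fixed dose of an anchor drug with five library-drug doses (not always all listed) in √10 steps. After 5 days, nuclei were stained in a one-step fixation (final 0.05% Triton X-100, 1% formaldehyde, 1 ug/ml Hoechst) and counted on 4× images, and relative viability is the treated-to-vehicle nuclei ratio, as the median of duplicate plates.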

[2] = compound: CO[C@@H]1[C@H](N(C)C(=O)c2ccccc2)C[C@H]2O[C@]1(C)n1c3ccccc3c3c4c(c5c6ccccc6n2c5c31)C(=O)NC4 [Midostaurin] + O=C(CCCCCCC(=O)Nc1ccccc1)NO [Vorinostat] (partner 1 µM)
Outline: as §1

[3] = compound: COc1cc(-c2nn([C@H]3CC[C@H](N4CCN(C(C)=O)CC4)CC3)c3ncnc(N)c23)ccc1NC(=O)c1cc2ccccc2n1C + CS(=O)(=O)N1CCN(Cc2cc3nc(-c4cccc5[nH]ncc45)nc(N4CCOCC4)c3s2)CC1 [Pictilisib] (partner 1 µM)
Outline: as §1

[4] = compound: CO[C@@H]1[C@H](N(C)C(=O)c2ccccc2)C[C@H]2O[C@]1(C)n1c3ccccc3c3c4c(c5c6ccccc6n2c5c31)C(=O)NC4 [Midostaurin] + COc1cccc2cc(-c3nc([C@H]4CC[C@H](C(=O)O)CC4)n4ncnc(N)c34)[nH]c12 [OSI-027] (partner 0.5 µM)
Outline: as §1

[5] = compound: COc1cc(-c2nn([C@H]3CC[C@H](N4CCN(C(C)=O)CC4)CC3)c3ncnc(N)c23)ccc1NC(=O)c1cc2ccccc2n1C + CC1(C)CCC(c2ccc(Cl)cc2)=C(CN2CCN(c3ccc(C(=O)NS(=O)(=O)c4ccc(N[C@H](CCN5CCOCC5)CSc5ccccc5)c(S(=O)(=O)C(F)(F)F)c4)cc3)CC2)C1 [Navitoclax] (partner 0.5 µM)
Outline: as §1

Cell Line	relative viability ([1]; first compound 0.0128 µM)	relative viability ([1]; first compound 0.04048 µM)	relative viability ([1]; first compound 0.128 µM)	relative viability ([1]; first compound 1.28 µM)	relative viability ([2]; first compound 0.01 µM)	relative viability ([2]; first compound 0.03162 µM)	relative viability ([2]; first compound 0.1 µM)	relative viability ([2]; first compound 0.3162 µM)	relative viability ([3]; first compound 0.0128 µM)	relative viability ([3]; first compound 0.04048 µM)	relative viability ([3]; first compound 0.128 µM)	relative viability ([3]; first compound 1.28 µM)	relative viability ([4]; first compound 0.01 µM)	relative viability ([4]; first compound 0.03162 µM)	relative viability ([4]; first compound 0.1 µM)	relative viability ([4]; first compound 0.3162 µM)	relative viability ([5]; first compound 0.0128 µM)	relative viability ([5]; first compound 0.04048 µM)	relative viability ([5]; first compound 0.128 µM)	relative viability ([5]; first compound 1.28 µM)
NCI-H1355	0.997	0.867	0.918	0.818	0.665	0.672	0.619	0.667	0.584	0.295	0.412	0.406	0.431	0.425	0.39	0.492	1.02	0.923	0.928	0.967
NCI-H1395	0.965	1.21	0.916	0.768	0.651	0.856	0.671	0.682	0.578	0.711	0.512	0.486	0.591	0.675	0.615	0.763	0.963	1.26	1.16	0.881
NCI-H1437	0.987	1.08	0.986	0.523	0.869	0.833	0.818	0.654	0.413	0.514	0.406	0.314	0.816	0.895	0.853	0.933	1.09	1.1	1.05	1.02
NCI-H1651	0.879	1.11	0.871	0.638	0.566	0.571	0.566	0.593	0.489	0.525	0.483	0.43	0.707	0.78	0.713	0.864	1.09	1.07	1.07	0.963
NCI-H1666	0.804	0.816	0.733	0.771	1.12	0.985	1.02	0.999	0.521	0.367	0.394	0.397	0.8	0.794	0.883	0.903	0.883	0.805	0.806	0.955
NCI-H1734	0.847	0.772	0.873	0.717	0.796	0.818	0.855	0.467	0.47	0.38	0.481	0.362	0.57	0.589	0.632	0.552	0.879	0.719	0.744	0.736
NCI-H1755	1.12	0.966	0.92	0.939	0.748	0.809	0.715	0.783	0.509	0.169	0.402	0.299	0.74	0.677	0.678	0.483	1.09	1.01	0.927	0.803
NCI-H1793	0.99	0.979	0.712	0.545	0.766	0.789	0.854	0.296	0.424	0.288	0.285	0.311	0.319	0.287	0.263	0.216	0.5	0.571	0.332	0.258
NCI-H1915	1.17	1.13	1.11	1.03	0.447	0.487	0.576	0.513	0.968	0.532	0.939	0.879	0.623	0.555	0.568	0.597	0.851	0.755	0.758	0.706
NCI-H1944	1.18	1.16	1.06	0.839	0.528	0.595	0.496	0.453	0.362	0.301	0.327	0.285	0.385	0.399	0.416	0.411	1.04	0.999	0.982	0.764
NCI-H1975	0.872	1.06	0.837	0.407	0.695	0.706	0.574	0.416	0.322	0.31	0.234	0.149	0.784	0.838	0.752	0.607	1.11	1.17	1.08	0.697
NCI-H1993	0.91	0.691	0.698	0.611	0.83	0.782	0.87	0.38	0.845	0.899	0.826	0.775	0.519	0.546	0.54	0.576	0.898	0.886	0.873	0.709
NCI-H2009	1.2	1.18	1.2	0.931	0.808	0.745	0.703	0.657	0.783	0.303	0.649	0.578	0.542	0.522	0.453	0.426	1.16	1.16	1.2	1.14
NCI-H2023	0.7	0.641	0.624	0.531	0.601	0.78	0.5	0.146	0.277	0.188	0.212	0.22	0.426	0.385	0.41	0.302	0.999	1.06	1.02	0.835
NCI-H2085	0.832	0.932	0.834	0.851	0.79	0.783	0.822	0.637	0.532	0.484	0.381	0.458	0.752	0.655	0.837	0.461	1.16	1.23	1.19	1.01
